Measurements reported in patent US9718835B2 (China Medical University Hospital, priority 2013, dated 2017).
Where two headings read alike, the source gives them in different places.

Assays:
[1] = tested on: DU-145 (hormone-insensitive prostate cancer); assay: Sulforhodamine B cytotoxicity assay, DU-145; assay type: cell-based, human; details: Homo sapiens, DU-145; Table 1; 72 h; average ± SD
Description: (§1) The 12 novel 1-derivatives 9a-l were evaluated for in vitro antiproliferative activity against four human tumor cell lines, KB (nasopharyngeal), A-549 (lung), DU-145 (prostate), and KBvin (MDR KB subline), by using a sulforhodamine B colorimetric assay with triplicate experiments.^30 Compounds 1 and 3 were used as controls.
(§2) The human tumor cell lines used in this manuscript were A-549 (lung carcinoma), MDA-MB-231 (triple-negative breast cancer), DU-145 (hormone-insensitive prostate cancer), KB (originally isolated from epidermoid carcinoma of the nasopharynx), KBvin (vincristine-resistant KB subline), and HCT116 (colorectal adenocarcinoma). These cell lines were obtained from the Lineberger Comprehensive Cancer Center (UNC-CH) or from ATCC (Manassas, Va.), except KBvin, which was a generous gift of Professor Y.-C. Cheng (Yale University). All cell lines were maintained and assayed in RPMI-1640 medium containing 2 mM L-glutamine and 25 mM HEPES (HyClone), supplemented with 10% heat-inactivated fetal bovine serum (HyClone), 100 μg/mL streptomycin, 100 IU/mL penicillin, and 0.25 μg/mL amphotericin B (Cellgro) in a humidified atmosphere containing 5% CO2 in air. Compound stock solutions were prepared at 10 mM in DMSO and diluted with culture medium with the final DMSO concentration ≦0.01% (v/v), a concentration without effect on cell growth. The 4-6×10^3 cells/well were cultured for 72 h with various concentrations of test compounds in 96-well plate at 37° C. […] Each assay was performed in triplicate with duplicated samples.

[2] = biological target: T1, recombinant human Topoisomerase I (Homo sapiens, UniProt P11387); assay: Topoisomerase I activity assay in a cell-free system; assay type: biochemical; details: purified recombinant human Topo I
T1 construct: purchased TopoGEN
T1 sequence (P11387 1-765): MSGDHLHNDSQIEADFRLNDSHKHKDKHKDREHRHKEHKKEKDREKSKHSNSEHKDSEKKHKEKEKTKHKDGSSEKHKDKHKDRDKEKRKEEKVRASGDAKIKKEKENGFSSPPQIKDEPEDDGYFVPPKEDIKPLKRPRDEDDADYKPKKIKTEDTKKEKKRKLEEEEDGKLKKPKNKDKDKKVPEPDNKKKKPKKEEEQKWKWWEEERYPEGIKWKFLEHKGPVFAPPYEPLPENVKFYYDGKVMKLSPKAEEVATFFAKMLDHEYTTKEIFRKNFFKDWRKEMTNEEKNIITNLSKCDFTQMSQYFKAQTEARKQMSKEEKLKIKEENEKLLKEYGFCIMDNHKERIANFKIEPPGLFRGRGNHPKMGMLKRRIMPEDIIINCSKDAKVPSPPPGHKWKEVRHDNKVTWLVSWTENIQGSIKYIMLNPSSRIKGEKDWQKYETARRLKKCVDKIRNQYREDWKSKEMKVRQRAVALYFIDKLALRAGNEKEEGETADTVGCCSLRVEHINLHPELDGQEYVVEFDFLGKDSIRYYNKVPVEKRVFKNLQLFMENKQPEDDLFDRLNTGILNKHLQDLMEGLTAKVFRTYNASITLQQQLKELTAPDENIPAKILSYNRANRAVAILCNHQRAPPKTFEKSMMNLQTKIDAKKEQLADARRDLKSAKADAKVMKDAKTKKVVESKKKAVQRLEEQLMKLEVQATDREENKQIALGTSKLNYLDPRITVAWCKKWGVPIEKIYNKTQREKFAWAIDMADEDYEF
Description: Inhibition of Topo I activity by 9a in a cell-free system. A 1-delivative with an esterified 20-hydroxy group is expected to be activated by digestion with carboxylesterases. […] We authenticated the inhibitory effect of 9a against Topo I in a dose-dependent manner Thus, we confirmed that 9a is a new class of Topo I inhibitor.
One unit of recombinant human Topoisomerase I enzyme (TopoGEN) was pre-incubated for 20 min at 37° C. with vehicle, 9a, 1, 3, or SN-38 in a final volume of 20 μL reaction buffer (10 mM Tris-HCl, pH 7.9, 1 mM EDTA, 150 mM NaCl, 0.1% BSA, 0.1 mM spermidine, 5% glycerol) was then incubated with 250 ng of supercoiled plasmid DNA for 20 min. The supercoiled, relaxed, or nicked DNA was separated by 1% agarose gel in 1×TAE (Tris-Acetate-EDTA) buffer. Ethidium bromide stained agarose gel was photographed using Gel Doc XR (Bio-Rad).

[3] = tested on: Topo II; assay: Topo II activity assay, nuclear extracts of treated A-549 cells, catenated kDNA; assay type: cell-based, human
Text: First, we determined the effect of 9a on cell cycle distribution using flow cytometry analysis. […] Because it has been shown that 1-Topo I-DNA covalent complexes enhance the transcription-dependent degradation of Topo I via a 26S proteasome pathway,^32 the effects of 9a on the expression levels of Topo I and Topo II were investigated. […] Compound 9a acts directly on Topo I and results in the accumulation of covalent Topo I-DNA complexes followed by proteasomal Topo I degradation, which is the same effect as 1 and contributes to 9a's cytotoxicity.
(§3) Topo I activity test was performed using an assay kit (TopoGEN) according to the manufacturer's instructions. Nuclear extracts from 9a-treated A-549 cells were incubated with supercoiled DNA (for Topo I) or catenated kDNA (for Topo II) for 30 min at 37° C. Reaction mixture was separated by is 1% agarose gel in 1×TAE buffer. The gel was stained with ethidium bromide and photographed using Gel Doc XR (Bio-Rad).

[4] = i.p.; cited from earlier work
[5] = biological target: T2, Topo I (Homo sapiens, UniProt P11387); assay: Topo I activity assay, nuclear extracts of treated A-549 cells, supercoiled DNA; assay type: cell-based; parameters: Nuclear extracts from 9a-treated A-549 cells were incubated with supercoiled DNA (for Topo I); endogenous in cells; host or cells: A-549
T2 sequence (P11387 1-765): T1 sequence (P11387 1-765)
Description: First, we determined the effect of 9a on cell cycle distribution using flow cytometry analysis. […] Because it has been shown that 1-Topo I-DNA covalent complexes enhance the transcription-dependent degradation of Topo I via a 26S proteasome pathway,^32 the effects of 9a on the expression levels of Topo I and Topo II were investigated.
as §3

[6] = tested on: KB (epidermoid carcinoma of the nasopharynx); assay: Sulforhodamine B cytotoxicity assay, KB; assay type: cell-based, human; details: Homo sapiens
Description: as §1, §2

[7] = tested on: KBvin (vincristine-resistant KB subline); assay: Sulforhodamine B cytotoxicity assay, KBvin; assay type: cell-based, human; details: Homo sapiens, KBVIN
Text: as §2, with “Compound stock solutions were prepared at 10 mM in DMSO and diluted with culture medium with the final DMSO concentration ≦0.01% (v/v), a concentration without effect on cell growth.” left out

[8] = tested on: MDA-MB-231 (triple-negative breast cancer); assay: Sulforhodamine B cytotoxicity assay, MDA-MB-231; assay type: cell-based; details: Homo sapiens, Table 4, read-out: IC50 (Average ± SD) MDA-MB-231
Text: as §2, with “Compound stock solutions were prepared at 10 mM in DMSO and diluted with culture medium with the final DMSO concentration ≦0.01% (v/v), a concentration without effect on cell growth.” left out

[9] = tested on: A-549 (lung carcinoma); assay: Sulforhodamine B cytotoxicity assay, A-549; assay type: cell-based, human; details: Homo sapiens, A549; Table 1; 72 h; average ± SD
Text: as §2, with “Compound stock solutions were prepared at 10 mM in DMSO and diluted with culture medium with the final DMSO concentration ≦0.01% (v/v), a concentration without effect on cell growth.” left out

[10] = tested on: human colorectal adenocarcinoma HCT116 xenograft; assay: Xenograft model antitumor assay; assay type: in vivo, nu/nu mice
Description: Xenograft model antitumor assay using human colorectal adenocarcinoma cell line HCT116 was performed according to the regimen in Table 2. The 31-day study utilized four groups of mice (n=8) bearing established HCT116 xenograft with mean volumes of approximately 200 mm^3 on day one. The tumor growth and animal body weight change for each treatment group were measured three times per week (FIGS. 2 and 3). Compound 9a was administered intravenously (i.v.) for 7 days and then intraperitoneally (i.p.) at 5 and 10 mg/kg once every day (QD) to the end.
Five- to six-week-old female nu/nu mice (National Laboratory Animal Center, Taiwan) were inoculated subcutaneously with 2×10^6 human colorectal adenocarcinoma HCT116 cells in flank. When the grafted tumor volume reached the average volume of 200 mm^3, mice were randomly divided into four groups (n=8). Vehicle control and compound 9a at 5 or 10 mg/kg were administered i.v. once a day (QD) for 7 days and then i.p. once a day to the end. As an experimental control group, 100 mg/kg of compound 3 was administered i.v. once a week (QWK) to the end. The length (L) and width (W) of graft was measured every 3 to 4 days to the end, and the tumor volume was calculated as LW^2/2. Results were evaluated statistically by Student's t-test. This study was approved by the Institutional Animal Care and Use Committee (IACUC) of the National Taiwan University (Taipei, Taiwan), and was performed according to the institutional guidelines.

## CC[C@@]1(O)C(=O)OCc2c1cc1n(c2=O)Cc2cc3ccccc3nc2-1 [Compound 1, Camptothecin, reference compound]
[1]
  IC50: 29 ± 2.5 nM
[2]
  Inhibition of Topo I activity (relaxation/nicking of supercoiled plasmid DNA): inhibited Topo I activity
[3]
  Topo II decatenation of kDNA: failed to decatenate kineoplast DNA
[4]
  LD50: 56.2 mg/kg
[5]
  Topo I-mediated relaxation of supercoiled DNA: inhibited the relaxation of supercoiled DNA

## CC[C@@]1(O)C(=O)OCc2c1cc1n(c2=O)Cc2cc3c(CN(C)C)c(O)ccc3nc2-1 [Compound 2, topotecan, reference compound]
[6]; Table 4, read-out: IC50 (Average ± SD) KB
  IC50: 63 ± 4.2 nM
[7]; Table 4, read-out: IC50 (Average ± SD) KBvin
  IC50: 400 ± 21 nM
[8]
  IC50: 100 ± 5.5 nM

## CCc1c2c(nc3ccc(OC(=O)N4CCC(N5CCCCC5)CC4)cc13)-c1cc3c(c(=O)n1C2)COC(=O)[C@]3(O)CC [Compound 3, irinotecan, reference compound]
[9]
  IC50: 9500 ± 110 nM
[1]
  IC50: 9300 ± 610 nM
[6]; Table 1, 72 h, average ± SD, read-out: IC50 KB
  IC50: 9800 ± 480 nM
[7]; Table 1, 72 h, average ± SD, read-out: IC50 KBvin
  IC50: > 20000 nM
[2]
  Inhibition of Topo I activity (relaxation/nicking of supercoiled plasmid DNA): no inhibitory effect on Topo I activity
[10]; 100 mg/kg QWK i.v., n=8
  mice showing complete regression: three mice
[10]; 100 mg/kg QWK, P<0.001
  antitumor activity in vivo (tumor growth): exhibited antitumor activity
[4]
  LD50: 177.5 mg/kg

## COc1cc([C@@H]2c3cc4c(cc3[C@@H](O[C@@H]3O[C@@H]5CO[C@@H](C)O[C@H]5[C@H](O)[C@H]3O)[C@H]3COC(=O)[C@H]23)OCO4)cc(OC)c1O [etoposide]
[3]
  Topo II decatenation of kDNA: effectively blocked the decatenation of kDNA
